Series [1] concerns Echinochloa oryzicola. Description: Herbicidal activity against Echinochloa oryzicola assessed as phytotoxic activity ratings (0- no effect to 5-complete killing rating scale) at 100 g/a measured after 3 weeks post compound treatment under green house conditions. Format: functional.
The subject of series [2] is Cyperus serotinus. Description: Herbicidal activity against Cyperus serotinus assessed as phytotoxic activity ratings (0- no effect to 5-complete killing rating scale) at 100 g/a measured after 3 weeks post compound treatment under green house conditions. It is filed as functional.
The test system of series [3] is Schoenoplectiella juncoides. Description: Herbicidal activity against Schoenoplectiella juncoides var. Hotarui Ohwi assessed as phytotoxic activity ratings (0- no effect to 5-complete killing rating scale) at 100 g/a measured after 3 weeks post compound treatment under green house conditions. Format: functional.
Series [4] has as its system Oryza sativa. Nature of the series: Phytotoxicity against transplanted Oryza sativa (rice) seedlings assessed as phytotoxic activity ratings (0- no effect to 5-complete killing rating scale) at 100 g/a measured after 3 weeks post compound treatment under green house conditions. It is filed as organism-based. The note with it: in vivo, 504 h.
Series [5] deals with Oryza sativa. Nature of the series: Phytotoxicity against directly seeded Oryza sativa (rice) seedlings assessed as phytotoxic activity ratings (0- no effect to 5-complete killing rating scale) at 100 g/a measured after 3 weeks post compound treatment under green house conditions. It is filed as organism-based. Particulars: in vivo, 504 h.
The test system of series [6] is Cyperus difformis. Description: Herbicidal activity against Cyperus difformis assessed as phytotoxic activity ratings (0- no effect to 5-complete killing rating scale) at 12.2 g/a measured after 3 weeks post compound treatment under green house conditions. It is filed as functional.
Series [7] has as its system Cyperus difformis. Description: Herbicidal activity against Cyperus difformis assessed as phytotoxic activity ratings (0- no effect to 5-complete killing rating scale) at 25 g/a measured after 3 weeks post compound treatment under green house conditions. Format: functional.
Series [8] has as its system Schoenoplectiella juncoides. Description: Herbicidal activity against Schoenoplectiella juncoides var. Hotarui Ohwi assessed as phytotoxic activity ratings (0- no effect to 5-complete killing rating scale) at 50 g/a measured after 3 weeks post compound treatment under green house conditions. Format: functional.
The subject of series [9] is Cyperus serotinus. Description: Herbicidal activity against Cyperus serotinus assessed as phytotoxic activity ratings (0- no effect to 5-complete killing rating scale) at 3.1 to 100 g/a measured after 3 weeks post compound treatment under green house conditions. It is filed as functional.
Series [10] concerns Cyperus difformis. Nature of the series: Herbicidal activity against Cyperus difformis assessed as phytotoxic activity ratings (0- no effect to 5-complete killing rating scale) at 50 g/a measured after 3 weeks post compound treatment under green house conditions. Format: functional.
Series [11] relates to Cyperus difformis. Description: Herbicidal activity against Cyperus difformis assessed as phytotoxic activity ratings (0- no effect to 5-complete killing rating scale) at 100 g/a measured after 3 weeks post compound treatment under green house conditions. Format: functional.
The subject of series [12] is Echinochloa oryzicola. Description: Herbicidal activity against Echinochloa oryzicola assessed as phytotoxic activity ratings (0- no effect to 5-complete killing rating scale) at 25 g/a measured after 3 weeks post compound treatment under green house conditions. Format: functional.
Series [13] deals with Cyperus serotinus. Description: Herbicidal activity against Cyperus serotinus assessed as phytotoxic activity ratings (0- no effect to 5-complete killing rating scale) at 3.1 g/a measured after 3 weeks post compound treatment under green house conditions. It is filed as functional.
In series [14] the test system is Schoenoplectiella juncoides. Nature of the series: Herbicidal activity against Schoenoplectiella juncoides var. Hotarui Ohwi assessed as phytotoxic activity ratings (0- no effect to 5-complete killing rating scale) at 12.2 g/a measured after 3 weeks post compound treatment under green house conditions. It is filed as functional.
Series [15] deals with Schoenoplectiella juncoides. Nature of the series: Herbicidal activity against Schoenoplectiella juncoides var. Hotarui Ohwi assessed as phytotoxic activity ratings (0- no effect to 5-complete killing rating scale) at 3.1 g/a measured after 3 weeks post compound treatment under green house conditions. Format: functional.
For series [16], the system named is Echinochloa oryzicola. Nature of the series: Herbicidal activity against Echinochloa oryzicola assessed as phytotoxic activity ratings (0- no effect to 5-complete killing rating scale) at 50 g/a measured after 3 weeks post compound treatment under green house conditions. It is filed as functional.
Series [17] has as its system Cyperus difformis. Description: Herbicidal activity against Cyperus difformis assessed as phytotoxic activity ratings (0- no effect to 5-complete killing rating scale) at 6.2 g/a measured after 3 weeks post compound treatment under green house conditions. Format: functional.
For series [18], the system named is Schoenoplectiella juncoides. Nature of the series: Herbicidal activity against Schoenoplectiella juncoides var. Hotarui Ohwi assessed as phytotoxic activity ratings (0- no effect to 5-complete killing rating scale) at 6.2 g/a measured after 3 weeks post compound treatment under green house conditions. It is filed as functional.
The subject of series [19] is Echinochloa oryzicola. Description: Herbicidal activity against Echinochloa oryzicola assessed as phytotoxic activity ratings (0- no effect to 5-complete killing rating scale) at 6.2 g/a measured after 3 weeks post compound treatment under green house conditions. It is filed as functional.
Series [20] deals with Oryza sativa. Description: Phytotoxicity against directly seeded Oryza sativa (rice) seedlings assessed as phytotoxic activity ratings (0- no effect to 5-complete killing rating scale) at 12.2 g/a measured after 3 weeks post compound treatment under green house conditions. It is filed as organism-based. Particulars: in vivo, 504 h.
The test system of series [21] is Cyperus serotinus. Nature of the series: Herbicidal activity against Cyperus serotinus assessed as phytotoxic activity ratings (0- no effect to 5-complete killing rating scale) at 12.2 g/a measured after 3 weeks post compound treatment under green house conditions. Format: functional.
The subject of series [22] is Oryza sativa. Description: Phytotoxicity against directly seeded Oryza sativa (rice) seedlings assessed as phytotoxic activity ratings (0- no effect to 5-complete killing rating scale) at 6.2 g/a measured after 3 weeks post compound treatment under green house conditions. Format: organism-based. The note with it: in vivo, 504 h.
For series [23], the system named is Cyperus serotinus. Description: Herbicidal activity against Cyperus serotinus assessed as phytotoxic activity ratings (0- no effect to 5-complete killing rating scale) at 50 g/a measured after 3 weeks post compound treatment under green house conditions. Format: functional.

Activity data for 21 compounds are collected here from ChEMBL document CHEMBL3046383, “Enantioselective Herbicidal Activity of Chiral α-Methylbenzylphenylureas against Cyperaceae and Echinochloa Paddy Weeds” (Biosci Biotechnol Biochem, 1998).

Calls of active or inactive are those of the source. How the calls were made is not given here.

As for `CCc1cccc(NC(=O)N[C@H](C)c2ccccc2)c1`, the Activity with Echinochloa oryzicola [1] is listed as 40%; with Cyperus serotinus [2] it was 40%; in series [3] it was 40%; in the series on Oryza sativa [4] it was 0%; in the series on Oryza sativa [5], 0%; in the series with Cyperus difformis [6], 80%.

For the compound `Cc1ccc(NC(=O)N[C@H](C)c2ccccc2)cc1`, the Activity in the series with Echinochloa oryzicola [1] is 10%; in the series on Cyperus serotinus [2], 40%; in the series on Oryza sativa [4], 0%; in the series with Cyperus difformis [7], 80%; in series [8] it was 80%; with Oryza sativa [5] it was 0%.

In the case of `CC(C)c1cccc(NC(=O)N[C@@H](C)c2ccccc2)c1`, the Activity came out at 0% in the series with Echinochloa oryzicola [1]; 10% in the series on Cyperus serotinus [2]; 80% in the series with Cyperus serotinus [9]; 0% in the series on Oryza sativa [4]; 80% with Cyperus difformis [10]; 0% in the series with Oryza sativa [5].

`C[C@H](NC(=O)Nc1ccccc1)c1ccccc1`: the Activity in the series on Cyperus difformis [11] turned out to be 0%; in the series with Echinochloa oryzicola [12], 80%; in the series with Cyperus serotinus [2], 0%; in [3], 0%; with Oryza sativa [4], 0%; in the series on Oryza sativa [5], 10%.

`CC(C)c1ccc(NC(=O)N[C@@H](C)c2ccccc2)cc1`: the Activity (in the series on Cyperus difformis [11]; in the series on Echinochloa oryzicola [1]; in the series with Cyperus serotinus [2]; in [3]; in the series with Oryza sativa [4]; with Oryza sativa [5]) was 0% throughout. The result in the series on Cyperus serotinus [9] was inactive.

Regarding `C[C@@H](NC(=O)Nc1ccccc1C(F)(F)F)c1ccccc1`, the Activity is listed as 40% in the series with Echinochloa oryzicola [1]; 0% in the series on Oryza sativa [4]; 80% with Cyperus serotinus [13]; 80% in series [14]; 10% in the series with Oryza sativa [5]; 80% in the series on Cyperus difformis [6].

For `COc1cccc(NC(=O)N[C@H](C)c2ccccc2)c1`, the Activity with Cyperus difformis [11] was 40%; with Echinochloa oryzicola [1] it was 10%; in the series with Cyperus serotinus [2], 10%; in the series with Cyperus serotinus [9], 80%; in the series with Oryza sativa [4], 0%; in series [8], 80%. In the series on Oryza sativa [5], the Activity amounted to 10%.

For the compound `C[C@@H](NC(=O)Nc1cccc(C(F)(F)F)c1)c1ccccc1`, the Activity in the series on Cyperus difformis [11] turned out to be 40%; in the series on Echinochloa oryzicola [1], 10%; in the series with Cyperus serotinus [2], 0%; with Oryza sativa [4], 0%; in series [8], 80%; in the series with Oryza sativa [5] it was 10%.

Turning to `C[C@H](NC(=O)Nc1cccc(F)c1F)c1ccccc1`, the Activity in the series on Cyperus difformis [11] was found to be 0%; in the series with Echinochloa oryzicola [12] it was 80%; in series [3], 0%; with Oryza sativa [4], 0%; in the series on Oryza sativa [5] it was 10%. The outcome in the series on Cyperus serotinus [9] was inactive.

For `Cc1ccc(NC(=O)NC(C)(C)c2ccccc2)cc1` [DAIMURON], the Activity in [15] is given as 80%; in the series on Echinochloa oryzicola [16] it was 80%; in the series with Cyperus difformis [17], 80%; in the series on Oryza sativa [4], 0%; in the series with Oryza sativa [5], 10%.

As to `CC(C)c1ccccc1NC(=O)N[C@H](C)c1ccccc1`, the Activity in the series with Cyperus difformis [17] is 80%; in series [18], 80%; in the series with Oryza sativa [4], 0%; with Cyperus serotinus [13] it was 80%; in the series on Echinochloa oryzicola [19], 80%; with Oryza sativa [20], 80%.

As to `C[C@H](NC(=O)Nc1ccccc1F)c1ccccc1`, the Activity in the series with Cyperus difformis [11] is on record as 10%; with Cyperus serotinus [2], 0%; in series [3] it was 0%; in the series on Oryza sativa [4], 0%; with Echinochloa oryzicola [19], 80%; in the series on Oryza sativa [5] it was 40%.

Consider `CC(C)c1cccc(NC(=O)N[C@H](C)c2ccccc2)c1`, for which the Activity was 0% with Echinochloa oryzicola [1]; 80% with Cyperus serotinus [21]; 40% in series [3]; 0% in the series with Oryza sativa [4]; 80% with Cyperus difformis [7]; 0% in the series with Oryza sativa [5].

For the compound `C[C@H](NC(=O)Nc1cc(F)ccc1F)c1ccccc1`, the Activity came out at 0% in the series with Cyperus difformis [11]; 80% in the series with Echinochloa oryzicola [12]; 0% in [3]; 0% in the series on Oryza sativa [4]; 10% with Oryza sativa [5]. Further, the outcome with Cyperus serotinus [9] was inactive.

Take `C[C@@H](NC(=O)Nc1ccccc1C(C)(C)C)c1ccccc1`: the Activity with Oryza sativa [22] was 80%; in the series on Cyperus difformis [17], 80%; in series [18], 80%; in the series on Oryza sativa [4] it was 0%; in the series with Cyperus serotinus [13] it was 80%; with Echinochloa oryzicola [19], 80%.

Consider `Cc1cccc(NC(=O)N[C@@H](C)c2ccccc2)c1`, for which the Activity is on record as 0% in the series on Cyperus difformis [11]; 10% in the series with Echinochloa oryzicola [1]; 0% in the series with Cyperus serotinus [2]; 0% in series [3]; 0% in the series with Oryza sativa [4]; 10% in the series with Oryza sativa [5].

`CCc1ccccc1NC(=O)N[C@H](C)c1ccccc1`: the Activity is given as 0% in the series on Echinochloa oryzicola [1]; 10% in series [3]; 0% in the series on Oryza sativa [4]; 80% with Cyperus serotinus [13]; 80% with Cyperus difformis [7]; 0% in the series on Oryza sativa [5].

On to `Cc1cc(F)ccc1NC(=O)N[C@@H](C)c1ccccc1`, for which the Activity stood at 10% in the series with Cyperus difformis [11]; 0% in the series on Echinochloa oryzicola [1]; 40% in the series on Cyperus serotinus [2]; 40% in series [3]; 0% in the series on Oryza sativa [4]; 0% in the series with Oryza sativa [5].

On to `C[C@H](NC(=O)Nc1ccccc1C(C)(C)C)c1ccccc1`, for which the Activity in the series with Cyperus difformis [11] came out at 40%; in the series on Echinochloa oryzicola [1] it was 0%; in the series on Cyperus serotinus [2] it was 0%; in series [3], 10%; in the series with Oryza sativa [4], 0%; with Oryza sativa [5], 0%.

As for `CCCc1ccc(NC(=O)N[C@H](C)c2ccccc2)cc1`, the Activity in the series with Cyperus difformis [11] is recorded as 40%; with Cyperus serotinus [2], 0%; in [3], 40%; in the series with Oryza sativa [4] it was 0%; in the series on Echinochloa oryzicola [19], 80%; in the series with Oryza sativa [5], 10%.

On to `Cc1ccccc1NC(=O)N[C@H](C)c1ccccc1`, for which the Activity is 80% in the series with Cyperus serotinus [23]; 10% in the series on Cyperus difformis [11]; 0% with Echinochloa oryzicola [1]; 0% in the series with Oryza sativa [4]; 0% with Oryza sativa [5].
